The values below come from patent publication US8338473B2, “Derivatives of psammaplin A, a method for their synthesis and their uses for the prevention or treatment of cancer” (Centre National de la Recherche Scientifique, priority 2007, dated 2012).

Data set [1] has as its system p16INK4a promoter. The data set can be described thus: Methylation specific PCR for the p16 gene. It is filed as cell-based. The conditions noted are these: 24 hrs. The method, then:
FIG. 2: a) Methylation specific PCR for the RARβ gene after 16 and 24 hrs of treatment with the indicated compounds; b) Methylation specific PCR for the p16 gene after 24 hrs of the indicated treatments. Samples are representative of real duplicates; c) p16 expression levels in U937 cells after 24 hrs with the indicated treatments; d) DNMT enzymatic in vitro assay carried out with 1.5 and 50 μM of the indicated compounds;
DNA extraction was performed as described below. Bisulfite treatment and PCR for the determination of p16 methylation was performed as described from the suppliers (Chemicon).

In data set [2] the test system is ex vivo AML patient blasts. The data set can be described thus: Cell cycle and apoptosis in ex vivo AML patient blasts. It is filed as cell-based, human. The conditions noted are these: for cell cycle arrest and apoptosis (caspase 3 activation): 4 ex vivo cultures, AML patients #102, #108, #109, #116. The method, then:
FIG. 4: a) Cell cycle analyses and apoptosis carried out in ex vivo samples from AML patients identified with numbers; b) Cell cycle analysis, apoptosis and histone H3 acetylation levels of #116 AML cells after 20 hrs is of the indicated treatments.
(§1) Human leukemia cell line U937 was propagated in RPMI medium supplemented with 10% FBS (Foetal bovine serum; Hyclone) and antibiotics (100 U/mL penicillin, 100 μg/mL streptomycin and 250 ng/mL amphotericin-B). Cells were kept at the constant concentration of 200000 cells per milliliter of culture medium. For AML samples, bone marrow containing 80% to 90% leukemic blasts was purified over Ficoll. This study was approved by the Ethical Committee of the Second University of Naples.

For data set [3], the target named is T1, HDAC6 (Homo sapiens, UniProt Q9UBN7).
T1 construct: Tubuline acetylation and p21 expression levels in U937 cells after 24 hrs with the indicated treatments; endogenous in cells; host or cells: U937
T1 sequence (Q9UBN7 whole entry): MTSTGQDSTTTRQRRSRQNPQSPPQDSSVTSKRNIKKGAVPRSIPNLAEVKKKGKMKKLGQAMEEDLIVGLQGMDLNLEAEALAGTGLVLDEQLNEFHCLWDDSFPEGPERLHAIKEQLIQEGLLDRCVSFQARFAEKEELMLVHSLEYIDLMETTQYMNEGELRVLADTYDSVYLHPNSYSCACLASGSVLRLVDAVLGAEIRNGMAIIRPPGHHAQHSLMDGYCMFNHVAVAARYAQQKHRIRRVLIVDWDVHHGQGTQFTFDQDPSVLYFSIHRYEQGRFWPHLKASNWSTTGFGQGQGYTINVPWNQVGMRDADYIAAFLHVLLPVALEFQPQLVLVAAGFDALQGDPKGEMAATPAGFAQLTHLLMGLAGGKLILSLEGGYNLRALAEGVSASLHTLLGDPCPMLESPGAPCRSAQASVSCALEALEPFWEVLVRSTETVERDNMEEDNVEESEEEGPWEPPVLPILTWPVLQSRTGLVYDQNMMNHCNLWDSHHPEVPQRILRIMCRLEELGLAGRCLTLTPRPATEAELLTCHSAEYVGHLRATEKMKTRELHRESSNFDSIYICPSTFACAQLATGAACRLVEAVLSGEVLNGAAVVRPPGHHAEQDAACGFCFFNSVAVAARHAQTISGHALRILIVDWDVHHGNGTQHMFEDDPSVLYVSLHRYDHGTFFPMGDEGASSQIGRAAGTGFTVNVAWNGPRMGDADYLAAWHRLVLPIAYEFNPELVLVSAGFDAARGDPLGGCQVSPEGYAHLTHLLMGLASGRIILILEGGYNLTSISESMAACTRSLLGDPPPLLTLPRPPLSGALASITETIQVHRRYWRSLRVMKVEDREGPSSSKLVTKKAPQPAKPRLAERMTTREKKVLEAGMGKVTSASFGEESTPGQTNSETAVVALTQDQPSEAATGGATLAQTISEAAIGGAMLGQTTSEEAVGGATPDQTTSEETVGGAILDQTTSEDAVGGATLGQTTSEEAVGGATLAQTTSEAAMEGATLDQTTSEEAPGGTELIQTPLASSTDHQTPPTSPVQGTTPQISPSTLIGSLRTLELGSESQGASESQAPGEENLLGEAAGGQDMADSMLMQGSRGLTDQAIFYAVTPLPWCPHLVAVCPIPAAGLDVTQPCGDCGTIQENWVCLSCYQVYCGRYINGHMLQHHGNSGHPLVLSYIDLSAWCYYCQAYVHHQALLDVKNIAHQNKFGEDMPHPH
The data set can be described thus: Alpha tubulin acetylation in U937 cells (HDAC6 readout). Format: cell-based. The conditions noted are these: U937, 6 and 16 hrs. The method, then:
FIG. 1: a) Cell cycle analysis of U937 cells treated for 30 hrs with the indicated compounds used at 1 and 5 μM; b) Caspase 3 apoptotic assay of the indicated compounds after 24 hrs of treatment in the U937 cells; c) Tubulin acetylation and p21 expression levels at 6 and 16 hrs after treatment with the indicated compounds; total tubulin expression levels are used for equal loading; d) Histone H3 acetylation and K9 H3 methylation expression levels at 6 and 16 hrs after treatment with the indicated compounds; total tubulin expression levels are used for equal loading; e) K9, K14, K18 histone H3 acetylation expression levels at 6 and 16 hrs after treatment with the indicated compounds; total ERKs expression levels are used for equal loading; f) HDAC1 enzymatic assay: IP-HDAC1 is incubated with the indicated inhibitors for 24 Hrs; activity is measured as ^3H-acetyl release; g) HDAC4 enzymatic assay: IP-HDAC4 is incubated with the indicated inhibitors for 24 hrs; activity is measured as ^3H-acetyl release. […]

The subject of data set [4] is p21WAF1/CIP1. Briefly: p21 expression, Western blot in U937 cells. It is filed as cell-based, human. The method, then:
(§2) FIG. 1: a) Cell cycle analysis of U937 cells treated for 30 hrs with the indicated compounds used at 1 and 5 μM; b) Caspase 3 apoptotic assay of the indicated compounds after 24 hrs of treatment in the U937 cells; c) Tubulin acetylation and p21 expression levels at 6 and 16 hrs after treatment with the indicated compounds; total tubulin expression levels are used for equal loading; d) Histone H3 acetylation and K9 H3 methylation expression levels at 6 and 16 hrs after treatment with the indicated compounds; total tubulin expression levels are used for equal loading; e) K9, K14, K18 histone H3 acetylation expression levels at 6 and 16 hrs after treatment with the indicated compounds; total ERKs expression levels are used for equal loading; f) HDAC1 enzymatic assay: IP-HDAC1 is incubated with the indicated inhibitors for 24 Hrs; activity is measured as ^3H-acetyl release; g) HDAC4 enzymatic assay: IP-HDAC4 is incubated with the indicated inhibitors for 24 hrs; activity is measured as ^3H-acetyl release.
(§3) FIG. 3: a) Cell cycle and apoptosis analysis carried out in U937 cells after 24 hrs with the indicated compounds; values are media of independent triplicates; b) CD11c expression analysis carried out in U937 cells with the indicated compounds; values are media of independent duplicates; c) Tubuline acetylation and p21 expression levels in U937 cells after 24 hrs with the indicated treatments; total ERKs expression levels are used for equal loading; d) acetylation of histone H3 under the conditions indicated in (c).
For the determination of p21^WAF1/CIP1 and p16^INK4 100 μg of total protein extracts were separated on a 15% polyacrylammide gels and blotted. Western blots were shown for p21 (Transduction Laboratories, dilution 1:500), p16 (Santa Cruz) and total ERKs (Santa Cruz) were used to normalise for equal loading. For alpha-tubulin acetylation 25 μg of total protein extracts were separated on a 10% polyacrylamide gels and blotted. […]

The target in data set [5] is HDAC4 (Homo sapiens, UniProt P56524). The data set can be described thus: HDAC4 enzymatic assay (IP-HDAC4, 3H-acetyl release). Format: biochemical. As to conditions: IP-HDAC4 incubated with inhibitor 24 hrs. The method, then: as §2
Sequence of HDAC4 (P56524 whole entry, species assumed): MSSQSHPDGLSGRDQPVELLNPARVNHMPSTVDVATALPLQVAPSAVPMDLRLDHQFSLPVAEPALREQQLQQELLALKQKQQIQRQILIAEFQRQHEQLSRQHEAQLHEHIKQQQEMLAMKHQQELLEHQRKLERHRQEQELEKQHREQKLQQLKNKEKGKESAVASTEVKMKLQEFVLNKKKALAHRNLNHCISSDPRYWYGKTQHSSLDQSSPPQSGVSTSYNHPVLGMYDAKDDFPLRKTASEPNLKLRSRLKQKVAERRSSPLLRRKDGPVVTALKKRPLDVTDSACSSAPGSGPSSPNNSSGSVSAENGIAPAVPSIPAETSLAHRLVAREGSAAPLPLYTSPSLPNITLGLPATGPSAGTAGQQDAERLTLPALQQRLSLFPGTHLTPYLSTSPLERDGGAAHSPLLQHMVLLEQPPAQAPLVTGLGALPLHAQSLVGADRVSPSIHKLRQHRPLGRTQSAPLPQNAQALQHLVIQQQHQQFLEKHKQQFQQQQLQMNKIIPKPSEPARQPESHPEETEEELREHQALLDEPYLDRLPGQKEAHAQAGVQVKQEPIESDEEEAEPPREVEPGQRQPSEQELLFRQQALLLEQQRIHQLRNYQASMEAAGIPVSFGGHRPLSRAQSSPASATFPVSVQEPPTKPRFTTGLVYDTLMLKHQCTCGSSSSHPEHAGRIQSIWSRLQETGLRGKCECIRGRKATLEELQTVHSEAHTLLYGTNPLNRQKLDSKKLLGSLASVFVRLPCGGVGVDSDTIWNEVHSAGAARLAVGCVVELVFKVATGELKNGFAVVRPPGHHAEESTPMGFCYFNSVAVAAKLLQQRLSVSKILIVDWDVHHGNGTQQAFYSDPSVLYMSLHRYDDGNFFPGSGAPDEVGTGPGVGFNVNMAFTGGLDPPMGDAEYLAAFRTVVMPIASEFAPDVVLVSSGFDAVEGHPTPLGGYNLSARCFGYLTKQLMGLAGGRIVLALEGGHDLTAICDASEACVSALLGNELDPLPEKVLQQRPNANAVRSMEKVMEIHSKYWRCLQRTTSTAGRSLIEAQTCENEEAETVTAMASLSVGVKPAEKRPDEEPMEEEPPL
Sequence of HDAC4 (O15379 whole entry partner, species assumed): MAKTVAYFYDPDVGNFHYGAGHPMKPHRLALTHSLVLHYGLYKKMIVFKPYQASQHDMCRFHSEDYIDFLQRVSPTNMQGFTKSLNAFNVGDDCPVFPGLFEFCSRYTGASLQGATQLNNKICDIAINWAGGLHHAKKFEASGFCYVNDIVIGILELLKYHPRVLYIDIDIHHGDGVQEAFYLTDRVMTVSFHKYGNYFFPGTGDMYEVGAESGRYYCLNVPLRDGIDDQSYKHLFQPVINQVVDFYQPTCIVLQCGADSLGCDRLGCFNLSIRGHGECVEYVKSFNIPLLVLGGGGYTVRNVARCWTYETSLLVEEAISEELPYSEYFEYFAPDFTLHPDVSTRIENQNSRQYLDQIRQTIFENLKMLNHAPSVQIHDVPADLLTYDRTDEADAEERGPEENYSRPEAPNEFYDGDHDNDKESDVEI
For data set [6], the system named is histone deacetylases (HDAC). The conditions noted are these: in vitro cell-free enzyme assay; read-out: IC50, inhibition of histone deacetylases (HDAC); cited from earlier work.
The test system of data set [7] is U937 cells. Briefly: Caspase 3 apoptotic assay in U937 cells. As to conditions: U937, 24 hrs. It is filed as cell-based, human. How it is done:
as §2

The subject of data set [8] is HDAC. The conditions noted are these: cited from earlier work.
In data set [9] the test system is prostate cancer cells (LnCap). Briefly: Anti-proliferative and apoptogenic action in prostate cancer cells. It is filed as cell-based. As to conditions: data not shown.
Data set [10] relates to breast cancer cells (ZR75.1). Briefly: Anti-proliferative and apoptogenic action in breast cancer cells. Format: cell-based. The conditions noted are these: data not shown.
The test system of data set [11] is histone H3. The data set can be described thus: Histone H3 acetylation and K9 H3 methylation levels in U937 cells. It is filed as cell-based, human. As to conditions: U937, 6 and 16 hrs. How it is done:
as §2
For the determination of p21^WAF1/CIP1 and p16^INK4 100 μg of total protein extracts were separated on a 15% polyacrylammide gels and blotted. Western blots were shown for p21 (Transduction Laboratories, dilution 1:500), p16 (Santa Cruz) and total ERKs (Santa Cruz) were used to normalise for equal loading. For alpha-tubulin acetylation 25 μg of total protein extracts were separated on a 10% polyacrylamide gels and blotted. Western blots were shown for acetylated alpha-tubulin (Sigma, dilution 1:500) and total ERKs (Santa Cruz) or total tubulin (Sigma) were used to normalise for equal loading.

Data set [12] addresses HDAC1 (Homo sapiens, UniProt Q13547). Briefly: HDAC1 enzymatic assay (IP-HDAC1, 3H-acetyl release). Format: biochemical. As to conditions: IP-HDAC1 incubated with inhibitor 24 hrs. The method, then: as §2
For data set [13], the system named is U937 acute myeloid leukemia cell line. Briefly: Cell cycle analysis in U937 cells. Format: cell-based, human. The method, then: as §2, §3, §1
MS-275 (Schering A G) was dissolved in ethanol and used at 5×10^−6M; valproic acid (VPA; Sigma) was used at 1 mM. All other compounds described were dissolved in DMSO (Sigma-Aldrich) and used at 1 or 5 μM.
2.5×10^5 cells were collected and resuspended in 500 μL of a hypotonic buffer (0.1% Triton X-100, 0.1% sodium citrate, 50 μg/mL propidium iodide, RNAse A). Cells were incubated in the dark for 30 min. Samples were acquired on a FACS-Calibur flow cytometer using the Cell Quest software (Becton Dickinson) and analysed with standard procedures using the Cell Quest software (Becton Dickinson) and the ModFit LT version 3 Software (Verity). All the experiments were performed 3 times.

Data set [14] deals with DU-145 cells. The data set can be described thus: MTT cytotoxicity assay, DU-145. As to conditions: read-out: IC50 values, MTT cytotoxicity assay; DU-145, 48 h.
Data set [15] concerns HCT-116 colon carcinoma cells xenografted in immunoincompetent mice. The conditions noted are these: for Normalised tumour weight: mean of n = 10.
Data set [16] concerns HCT-116 cells. The data set can be described thus: MTT cytotoxicity assay, HCT-116. As to conditions: read-out: IC50 values, MTT cytotoxicity assay; HCT-116, 48 h.
Data set [17] relates to A-375 cells. The data set can be described thus: MTT cytotoxicity assay, A-375. As to conditions: read-out: IC50 values, MTT cytotoxicity assay; A-375, 48 h.
The nature of data set [18]: Earlier tolerability tests in mice. It is filed as in vivo. As to conditions: 30 mg/kg. The text has this: There were 10 animals in each group.
Setting [19] is: day 1, 20 mg/kg i.p. every second day.
[20] abbreviates: day 4, 20 mg/kg i.p. every second day.
The mark [21] stands for this setting: day 12, 20 mg/kg i.p. every second day.
[22] abbreviates: day 17, 20 mg/kg i.p. every second day.
[23] abbreviates: day 22, 20 mg/kg i.p. every second day.

Like-named read-outs stand apart in the source and are kept apart here.

Sequence of HDAC1 (Q13547 whole entry, species assumed): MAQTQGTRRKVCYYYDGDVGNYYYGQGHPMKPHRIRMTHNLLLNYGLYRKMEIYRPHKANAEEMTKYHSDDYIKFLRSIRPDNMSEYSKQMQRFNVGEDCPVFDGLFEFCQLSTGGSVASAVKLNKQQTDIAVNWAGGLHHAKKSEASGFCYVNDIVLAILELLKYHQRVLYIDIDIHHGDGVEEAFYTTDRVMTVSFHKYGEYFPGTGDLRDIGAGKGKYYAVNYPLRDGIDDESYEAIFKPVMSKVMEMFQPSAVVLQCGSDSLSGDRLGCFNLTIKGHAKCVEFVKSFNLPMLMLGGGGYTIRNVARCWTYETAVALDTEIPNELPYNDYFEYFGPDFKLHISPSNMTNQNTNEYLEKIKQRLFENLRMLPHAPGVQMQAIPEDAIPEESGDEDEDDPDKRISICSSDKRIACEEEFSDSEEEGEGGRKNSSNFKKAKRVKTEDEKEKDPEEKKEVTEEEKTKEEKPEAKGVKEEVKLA

Turning to `O=C(NCCSSCCNC(=O)/C(Cc1ccc(O)c(Br)c1)=N/O)/C(Cc1ccc(O)c(Br)c1)=N/O` [UVI5000, Psammaplin A], the “unmethylated p16INK4a promoter DNA (MSP)” value in [1] was “displayed a similar activity”. Moreover, the “cell cycle arrest and apoptosis (caspase 3 activation)” value in [2] was “induced cell cycle arrest and apoptosis”. In addition, the “inhibition of HDAC6 (alpha tubulin acetylation)” value in data set [3] was “inhibited the activity of HDAC6”. Also, the “expression of p21WAF1/CIP1” value in data set [4] (U937, 6 and 16 hrs) is reported as “dramatically increased”. Moreover, in [5], the “HDAC4 deacetylase activity inhibition” value is on record as “only moderate activity”. In addition, in data set [6], the IC50 was 4.2 nM. Besides, the “apoptogenic effect (caspase 3)” value in data set [7] was “strongest apoptogenic effect”. In addition, in [8], the “concentration to inhibit HDAC in cell-based assay relative to enzyme-based assay” value is on record as 1800 times. Also, the “anti-proliferative and apoptogenic action” value in [9] and in data set [10] was “confirmed” in each case. The “global histone H3 acetylation” value in [11] is recorded as “moderate time-dependent increase”. Further, the HDAC1 inhibition entry in data set [12] is “only a weak inhibitor of HDAC1”. The “cell cycle arrest, position of the block” value in data set [13] (U937, 30 hrs, 1 and 5 μM) is “arrests in the S and G2 phases”.

For the molecule `Nc1ccccc1NC(=O)c1ccc(CNC(=O)OCc2cccnc2)cc1` [MS-275], the “cell cycle arrest and apoptosis (caspase 3 activation)” value in [2] is “activities similar to UVI5008”. In addition, the values for the IC50 in [14], in data set [16] and in data set [17] were 8200 ± 600 nM, 2300 ± 300 nM and 2400 ± 700 nM, respectively. Also, in [15] (20 mg/kg i.p. every second day), the “Percent Growth Inhibition after 22 days” value stood at 35 ± 12%. The Normalised tumour weight in data set [15] (setting [19]) is given as 100 ± 25 mg; in [15] (setting [20]), 202.6 ± 81.5 mg; in [15] (setting [21]), 746.65 ± 185 mg; in data set [15] (setting [22]), 1360.61 ± 288 mg; in [15] (setting [23]), 2423.09 ± 445.5 mg.

SAHA: the “unmethylated p16INK4a promoter DNA (MSP)” value in data set [1] is “inactive”. Further, the “cell cycle arrest and apoptosis (caspase 3 activation)” value in data set [2] is “activities similar to UVI5008”. Besides, the Normalised tumour weight was found to be 100 ± 24 mg in [15] (setting [19]); 166.69 ± 56.8 mg in data set [15] (setting [20]); 892.95 ± 267.6 mg in data set [15] (setting [21]); 1915.59 ± 409.5 mg in [15] (setting [22]); 2952.8 ± 636.4 mg in data set [15] (setting [23]). Further, the mortality in data set [18] worked out at 60%. In addition, the tolerability result in data set [18] is “not tolerable”.

Take `Nc1ncn([C@@H]2O[C@H](CO)[C@@H](O)[C@H]2O)c(=O)n1` [5-azacytidine]: in data set [1], the “unmethylated p16INK4a promoter DNA (MSP)” value is listed as “very similar to that seen with UVI5008”.

`CSCCNC(=O)/C(Cc1c[nH]c2ccc(Br)cc12)=N/O` [UVI5020]: in [2] (5 μM, two samples of patient blasts), the apoptotic activity result is “only a weak induction of apoptosis”. Moreover, the “p21WAF1/CIP1 induction (FIG. 3c)” value in data set [4] (U937, 24 hrs) is listed as “enhanced expression”. Besides, the “cell cycle arrest and apoptosis, relative to UVI5008 (FIG. 3a)” value in data set [13] (U937, 24 hrs) was “inactive at inducing apoptosis and G2M arrest but it induces a G1 arrest”.
